Measurements from patent publication US7408079B2, “Imaging agents and methods of imaging NAALADase or PSMA” (The Johns Hopkins University, priority 2002, dated 2008).

What was measured:
[1] = target: T1, GCP II (Mus musculus, UniProt O35409); experiment: Binding specificity: blocking of ^11C-MCG kidney uptake by pretreatment with blocker; format: in vivo, mice; settings: for reduction in ^11C-MCG uptake: mouse kidney, pretreatment 5 minutes prior with unlabeled MCG (up to 1 mg/kg) or PMPA (1 mg/kg), sacrifice 30 minutes
T1 construct: from tissue; host or cells: kidney of live male CD-1 mice
Protocol: ANOVA, which was used in rodent radiotracer uptake studies, was performed with StatView SE Graphic software, version 1.03 (SAS Institute, Cary, N.C.). For the Students t test, p<0.01 was considered to indicate statistical significance.

[2] = test system: GCP II; experiment: Baboon PET study of renal cortical uptake with tracer kinetic modeling; format: in vivo, baboon (Papio anubis)
Protocol: (§1) A dynamic PET study of the renal cortical uptake and clearance of ^11C-MCG was performed in an adult male baboon (Papio anubis; body weight, approximately 30 kg). Before each study, two intraveneous catheters and a single arterial catheter were placed for infusion of anesthesia, injection of radiotracer and sampling of arterial blood, respectively. The animal was initially anestitized intramuscurally with 8-10 mg/kg alfadolone and alfaxalone acetate (Saffan; Pitman-Moore, Middlesex, UK) and was intubated. Anesthesia was maintained throughout the study by a continuous intravenous infusion drip of 6-9 mg/kg/h of Saffan. The animal was secured to the PET bed using an individually fitted thermoplastic mask. Pulse, blood pressure, and oxygen saturation were monitored continuously during the studies. Blood oxygen saturation was always maintained above 85%. After the animal was positioned in the PET scanner, transmission scanning was performed with a 370 MBq (10 mCi) ^68Ga source to allow for attenuation correction. PET scanning was started immediately after intravenous injection of 370 MBq (10 mCi) of high-specific-acitivtiy ^11C-MCG (corresponding, at a maximum, to 0.02 μg/kg). Thirty-five simultaneous, contiguous (18 directed planes, 17 cross planes, z-axis 14.45 cm), sequential quantitative tomographic slices fo […] were obtained with a GE Advance PET tomograph (General Electric Medical Systems, Milwaukee, Wis.) in the high-resolution mode (4.25-5.00 mm ful width at half maximum within the slice) over a 90 minute period. The animal was positioned so that the renal cortex was in the filed of view. Approximately 30 arterial blood samples (for radioassay and protein binding) were obtained over 90 minutes. […]
A one-tissue, three parameter (K1=influx, k2 efflux, DV=distribution volume) model was applied to the TACs and to the metabolite-corrected renal uptake curves to describe tracer kinetics with DV (=K1/k2 in ml/ml) used as anindex of receptor density. The effect of blocking with PMPA was evaluated by changes in the Dva nd calculated as 100×(DVbaseline−DVblocker)/DVbaseline. […]

[3] = in vivo
Protocol: Male CD-1 mice (Charles River, Wilmington, Mass.) weighing between 20 and 25 g were used and received an injection of 3.7 MBq (100 μCi) of ^11C-MCG through the tail vein. That amounted to, at a maximum, 0.27 μg/kg. For kinetic studies, mice were killed by cervical dislocation at 5, 15, 30, 60, and 120 min after injection fo the radiotracer in 200 μL of saline vehicle. The brains were removed and placed on ice, and the cerebellum, olfactory bulb, hypothalamus, hippocampus, striatum, parietal cortex, brainstem, and thalamus were harvested. Kidneys, blood, fat, muscle, small intestine, and prostate were also harvested. The tissue samples were weighted, and their radioactivity content was determined in an automated γ counter (1282 Compugamma CS: Pharmacia/LKB Nuclear, Gaithersburg Md.). Aliquots of the injected tracer were counted along with the samples and served as standards for the calculation of percentage injected dose per gram of tissue (% ID/g). To assess binding specificity, groups of three mice each were pretreated with the high affinity GCP II inhibitor PMPA at does of 1, 10 and 100 mg/kg in 200 μL of saline vehicle 5 minutes prior to ^11C-MCG injection. In an additional binding specificity study, animals were pretreated similarly with unlabeled MCG standard at doses of 5, 50, 100, 500, and 1000 μg/kg before ^11C-MCG injection

[4] = LogP (hydrophilicity); format: physicochemical
[5] = Metabolism studies of ^11C-MCG in mice (blood and kidney, HPLC); settings: mice in vivo, n=2
Protocol: At different times after injection of ^11C-MCG into mice, blood and kidneys were collected to determine the rate of metabolism of the radiotracer. Heparinized blood (0.2-0.3 mL) was diluted to 0.9 mL with cold 0.9% saline and acidified to 0.5 N by the rapid addition of 0.1 mL of 5 N perchloric acid. Following 5 minutes on ice, the precipitate was removed by centrifugation to yield an acid-soluble supernatant that was analyzed by HPLC. Similarly, an acid extract of mouse kidney was obtained from an initial homogenate of two kidneys in 0.8 mL of cold water.
The acid extracts were loaded onto a 4.6×250 mm Prodigy ODS-3 column (Phenomenex) eluted with 10% acetonitrile in 50 mM sodium phosphate buffer pH 2.5 at a flow rate of 2 mL/min. Radioactivity was measured by a dual BGO flow detector and the chromatograph analyzed by Laura software (Bioscan, Washington, D.C.). ^11C-MCG eluted after 4.0 minutes with a minor, earlier eluting product at 2.5 minutes.

[6] = Metabolism of ^11C-MCG in baboon arterial plasma; format: in vivo, baboon (Papio anubis)
Protocol: as §1, with “PET scanning was started immediately after intravenous injection of 370 MBq (10 mCi) of high-specific-acitivtiy ^11C-MCG (corresponding, at a maximum, to 0.02 μg/kg).” left out, “period.” for “period. The animal was positioned so that the renal cortex was in the filed of view. Approximately 30 arterial blood samples (for radioassay and protein binding) were obtained over 90 minutes.”

T1 sequence (O35409 whole entry): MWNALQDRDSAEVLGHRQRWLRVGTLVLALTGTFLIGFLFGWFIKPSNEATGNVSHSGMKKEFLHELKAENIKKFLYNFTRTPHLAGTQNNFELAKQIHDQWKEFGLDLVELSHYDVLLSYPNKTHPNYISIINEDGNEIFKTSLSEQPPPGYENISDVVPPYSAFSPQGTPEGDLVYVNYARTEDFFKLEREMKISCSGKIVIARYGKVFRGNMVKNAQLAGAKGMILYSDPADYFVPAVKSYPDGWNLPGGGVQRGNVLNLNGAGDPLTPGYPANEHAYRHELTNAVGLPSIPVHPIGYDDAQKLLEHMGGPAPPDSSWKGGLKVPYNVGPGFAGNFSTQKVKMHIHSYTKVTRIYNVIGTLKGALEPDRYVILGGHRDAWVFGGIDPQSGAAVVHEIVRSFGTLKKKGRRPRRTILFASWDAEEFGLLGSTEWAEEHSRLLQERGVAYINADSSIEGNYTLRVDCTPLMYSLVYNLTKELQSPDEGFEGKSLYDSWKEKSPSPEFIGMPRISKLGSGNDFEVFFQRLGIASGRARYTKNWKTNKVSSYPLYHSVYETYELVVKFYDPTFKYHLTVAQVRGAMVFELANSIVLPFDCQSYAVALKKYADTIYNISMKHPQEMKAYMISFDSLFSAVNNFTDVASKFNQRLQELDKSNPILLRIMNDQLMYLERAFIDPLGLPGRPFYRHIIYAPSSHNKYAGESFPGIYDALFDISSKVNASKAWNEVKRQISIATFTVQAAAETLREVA

Row | SMILES | decreasing ^11C-MCG uptake in mouse kidney (FIG. 1) ([1]; increasing concentration of unlabeled MCG blocker, up to) | reduction in ^11C-MCG uptake [1] | reduction in the DV of ^11C-MCG ([2]; baboon renal cortex, pretreatment with 3 mg/kg PMPA) [%] | Kidney/blood ratio ([3]; male, CD-1, mouse, 30 min) | Prostate uptake ([3]; male, CD-1, mouse, 30 min) [% ID/G] | kidney/muscle ratio ([3]; male, CD-1, mouse, 30 min) | uptake in brainstem ([3]; male, CD-1, mouse, 30 min) [% ID/g] | uptake in cerebellum ([3]; male, CD-1, mouse, 30 min) [% ID/g] | uptake in cortex ([3]; male, CD-1, mouse, 30 min) [% ID/g] | uptake in hippocampus ([3]; male, CD-1, mouse, 30 min) [% ID/g] | Brain uptake ([3]; mouse) | DV (distribution volume) ([2]; baboon renal cortex, after pretreatment with 3 mg/kg PMPA) [mL/mL] | DV (distribution volume) ([2]; male, baboon (Papio anubis), in vivo) [mL/mL] | logP [4] | metabolism in kidney ([5]; 30 minute time point) [%] | metabolism in plasma ([5]; 30 minute time point) [%] | metabolism in plasma ([5]; 60 minutes) | metabolism in kidney ([5]; at most over 5-60 minutes) [%] | peak metabolism ([6]; baseline, 90 minutes after injection) [%] | peak metabolism ([6]; blocker (2 mg/kg PMPA) 10 minutes prior to tracer, 90 minutes post injection) [%]
1 | CSCC(NC(=O)NC(CCC(=O)O)C(=O)O)C(=O)O (stereo not drawn) [MCG] | approximately seven fold | approximately sixfold |  |  |  |  |  |  |  |  |  |  |  |  |  |  |  |  |  | 
2 | O=C(O)CCC(CP(=O)(O)O)C(=O)O (stereo not drawn) [PMPA, reference compound] |  | approximately sixfold | 37 |  |  |  |  |  |  |  |  |  |  |  |  |  |  |  |  | 
3 | [11CH3]SC[C@H](NC(=O)N[C@@H](CCC(=O)O)C(=O)O)C(=O)O [^11C-MCG, 2-[3-(1-Carboxy-2-^11C-methylsulfanyl-ethyl)-ureido]-pentanedioic acid] |  |  |  | 30 | 1.55±1.01 | 73 | 0.12±0.03 | < 0.1 | < 0.1 | < 0.1 | low | 0.878 | 1.38 | -0.235 | 2.0 | 3.5 | at most 9.2% | ≤ 10.4 | 9.0 | 4.0
